The format of data set [1] is physicochemical. Particulars: 6 μM oligonucleotide, 10% K+ buffer.
Data set [2] concerns the target thrombin (Homo sapiens, UniProt P00734). Particulars: isothermal titration calorimetry (Pagano et al. 2008); cited from earlier work. Background: Isothermal titration calorimetry measures the heat released or taken up as one component is titrated into another.
For data set [3], the target named is OTABA. As to the kind of experiment: Fluorescent titration of dye binding to OTABA. The conditions noted are these: for Kd: apparent, dye binding to OTABA; for λem / λex: dye bound to OTABA; for λex (value in parentheses): footnote not given, line below the bound value. The procedure: Dye interaction with OTABA and subsequent displacement by OTA was initially investigated using fluorescence spectroscopy (FIG. 17) in the previously optimized OTA binding buffer. (Fadock et al., 2017) Additions of OTABA (up to 1.5 equiv.) to the dye (6 μM) caused dose-dependent increases in ligand emission at 488 nm for ThT (240-fold increase at 1.5 equiv. OTABA, FIG. 17a), 605 nm for the 4QI (42-fold, FIG. 17b) and 640 nm for BtC (8-fold, FIG. 17c).

The target in data set [4] is OTABA. As to the kind of experiment: Dye displacement from OTABA mediated by OTA (label-free aptasensor). In kind it is binding. Particulars: for Kd: apparent, OTA binding to OTABA from dye displacement, 0.5 μM OTABA; for % D (6 → 0.5 μM): OTA up to 1.5 equiv. The procedure:
For dye displacement from the aptamer mediated by OTA, a 2:1 dye:OTABA mixture (12:6 μM) was treated with aliquots of OTA up to 1.5 equiv. (9 μM). Under these conditions, ThT was poorly displaced from the aptamer, displaying only a 6% drop in emission intensity (FIG. 17d). […] Significant differences in the ability of OTA to displace the dyes from the aptamer was not anticipated. Furthermore, given the relative binding affinities of the dyes for OTABA, ThT was expected to display the greatest ease of displacement. Clearly the ability of OTA to displace the dyes from the aptamer had little to do with the dye aptamer binding affinity.
To determine the analytical potential of the dye displacement assay, the 2:1 dye:OTABA starting mixture was optimized and the OTA titrations were repeated using 0.5 μM OTABA in the presence of 1 μM dye. […] Additions of OTA up to 1.5 equiv (0.75 μM) caused 93% BtC displacement, as evidenced by the loss of emission intensity for the aptamer-bound BtC at 640 nm, coupled with the loss of the ET band at 256 nm for BtC stacking with the G-tetrad of the folded aptamer.
From the OTA titrations involving hemicyanine dye displacement (4QI and BtC), a limit of detection (LoD)˜15 nM (6 ng/mL) and a limit of quantification (LoQ)˜45-47 nM (˜18 ng/mL) were determined (R^2=0.95-0.99). In contrast, an LoD of 73 nM (29 ng/mL) and LoQ of 222 nM (89 ng/mL, R^2=0.85) was determined from the ThT displacement data.

Data set [5] can be described thus: Solvatochromic studies of 4QI. The class given is physicochemical. The procedure: (§1) All fluorescence excitation and emission measurements were made at 25.00° C. using a PTI Alphascan-2 spectrofluorometer equipped with a 1×4 Multicell Block Peltier and temperature controller, with baseline correction and variable slit widths as specified. All fluorescence excitation spectra were recorded at the maximum emission wavelength of the fluorophore and emission spectra were recorded at the maximum excitation wavelength.
Solvatochromatic studies were completed using quartz cells (Hellma 101-QS) with a light path of 10 mm. A 100 μM stock solution of 4QI was prepared in reagent grade DMSO. Using the stock solution, 3 μM solutions of 4QI were prepared in a series of solvents: MQ water, methanol, acetonitrile, THF, chloroform and isopropyl alcohol. After mixing by inversion (×20), emission and excitation spectra for each sample were recorded as described using slit widths of 5 nm.

The nature of data set [6]: Photophysical characterization of 4QI (fluorescence spectrometry). In kind it is physicochemical. The procedure: as §1
4QI-alcohol and 4QI-DMT contain the same fluorophore such that characterization of 4QI-alcohol is representative of the solvatochromic and photophysical capacity of the 4QI fluorophore. […] Excitation and emission in the visible region as opposed to the ultraviolet (UV) region is favorable because the dye can be excited using a visible lamp rather than a more expensive UV lamp.

Data set [7] in a line: Kinetic studies of 4QI under oligonucleotide deprotection conditions. In kind it is physicochemical. The procedure:
Recall that standard conditions for oligonucleotide deprotection involve heating to 55° C. for 4 h in ammonium hydroxide (Table 3). […] Therefore, all mTBA were deprotected under UltraMild conditions.

Data set [8] can be described thus: Photostability of 4QI within a DNA helix. In kind it is physicochemical. The conditions noted are these: 6-month period, aqueous buffer pH 7.4. An excerpt:
The 4QI dye was attached to a glycerol backbone and converted into a phosphoramidite for site-specific incorporation into DNA using solid phase DNA synthesis.

The mark [9] stands for this setting: first value: 6 μM OTABA, 12 μM dye.
[10] abbreviates: second value: 0.5 μM OTABA, 1 μM dye.

Here are results for 4 molecules from patent publication US11215619B2 (priority 2019, dated 2022).

For the molecule “TBA-15: Native thrombin binding aptamer 5′-GGTTGGTGTGGTTGG”, the “Tm GQ” value in data set [1] stood at 53.5 °C. The Kd in data set [2] is 330 nM.
Consider `CCN(CC)c1ccc2cc(/C=C/c3sc4ccccc4[n+]3C)c(=O)oc2c1` [BtC], for which, in data set [3], the Kd was found to be 3200 nM, the λem was determined as 640 nm, the λex turned out to be 580 nm and the “λex (value in parentheses)” value was “(549) nm”. For the same molecule, in data set [4] (1 μM dye), the Kd came out at 112 ± 8.9 nM. The “% D (6 → 0.5 μM)” value in data set [4] (setting [9]) was 52%. Besides, in data set [4] (setting [10]), the “% D (6 → 0.5 μM)” value turned out to be 93%.
For `Cc1ccc2c(c1)sc(-c1ccc(N(C)C)cc1)[n+]2C` [ThT, Thioflavin T], in data set [3], the Kd was found to be 10900 nM, the λem turned out to be 488 nm, the λex was determined as 448 nm and the “λex (value in parentheses)” value was “(412) nm”. For the same molecule, in data set [4] (1 μM dye), the Kd was 292 nM. The “% D (6 → 0.5 μM)” value in data set [4] (setting [9]) is 6%. Besides, the “% D (6 → 0.5 μM)” value in data set [4] (setting [10]) was determined as 23%.
For `C[n+]1ccc(/C=C/c2cn(CCCO)c3ccccc23)c2ccccc21.[I-]` [4QI, 4-(2-(1-(3-hydroxypropyl)-1H-indol-3-yl)vinyl)-1-methylquinolin-1-ium iodide], the λex max in data set [5] (Acetonitrile) is listed as 494 nm; in data set [5] (H2O), 486 nm; in data set [5] (Isopropyl-alcohol), 523 nm; in data set [5] (Methanol), 512 nm; in data set [5] (THF), 514 nm. In addition, the Stokes shift in data set [6] came out at 104 nm. Also, the extinction coefficient in data set [6] is recorded as 26,660 L/(mol·cm). Moreover, the stokes shift in data set [6] is reported as 90 nm. For the same molecule, the fluorescence emission in data set [6] (following excitation at 500 nm) was found to be 590 nm. The λem maxima in data set [6] (free in H2O) was found to be 580 nm. Besides, in data set [6] (free in H2O), the λex maxima amounted to 520 nm. Moreover, the figures for the “time to complete bleaching of 4QI absorbance” value in data set [7] (Standard deprotection conditions) and in data set [7] (UltraFast deprotection conditions) were at most 6.5 h and at most 0.05 h, respectively. Further, the “decrease of fluorescence intensity” value in data set [7] (UltraMild conditions, 17-hour kinetic study) was found to be 11%. For the same molecule, the photostability entry in data set [8] was “photostable”. In addition, the Kd in data set [3] worked out at 2500 nM; in data set [4] (1 μM dye) it was 356 nM. Besides, the λem in data set [3] is on record as 605 nm. In data set [3], the λex amounted to 532 nm. The “λex (value in parentheses)” value in data set [3] is “(493) nm”. Moreover, the figures for the “% D (6 → 0.5 μM)” value in data set [4] (setting [9]) and in data set [4] (setting [10]) were 28% and 47%, respectively.
